In ChEMBL document CHEMBL4418493, “N-hydroxyformamide compounds and compositions comprising them for use as BMP1, TLL1 and/or TLL2 inhibitors” (2018):

Experiments:
[1] = Reduction in PICP levels in human cardiac fibroblasts incubated for 24 to 48 hrs by ELISA; assay type: functional
[2] = Drug metabolism in heparinized pooled human plasma at pH 7.5 assessed as formation of ((2-ethoxy-4-(5-((((R)-2-((R)-1-(N-hydroxyformamido)propyl)heptanamido)methyl)carbamoyl)furan-2-yl)benzamido)methyl)phosphonic acid at 100 to 2000 ng/ml incubated up to 4 or 24 hrs by LC-MS/MS analysis; assay type: ADME, cell-free; conditions: pH 7.5, 24 h
[3] = Reduction in mature collagen deposition levels in human cardiac fibroblasts incubated for 24 to 48 hrs by immunostaining based assay; assay type: functional
[4] = Drug metabolism in heparinized pooled human plasma at pH 7.5 assessed as formation of N-(((R)-2-((R)-1-(N-hydroxyformamido)propyl)heptanamido)methyl)-5-phenylfuran-2-carboxamide at 100 to 2000 ng/ml incubated up to 4 or 24 hrs by LC-MS/MS analysis; assay type: ADME, cell-free; conditions: pH 7.5, 24 h
[5] = Stability in pH 7.96 assessed as compound purity level at 1 mg/ml heated to 40 degC and measured at 200 hrs by LC/MS analsysis; assay type: physicochemical; conditions: buffer, read-out: Stability
[6] = Drug metabolism in heparinized pooled human plasma at pH 7.5 assessed as conversion to active compound at 100 to 2000 ng/ml incubated for 4 by LC-MS/MS analysis; assay type: ADME, cell-free
[7] = Drug metabolism in heparinized pooled human plasma at pH 7.5 assessed as formation of 4-(5-((((R)-2-((R)-1-(N-hydroxyformamido) propyl)heptanamido)methyl)carbamoyl)furan-2-yl)benzoic acid at 100 to 2000 ng/ml incubated up to 4 or 24 hrs by LC-MS/MS analysis; assay type: ADME, cell-free; conditions: pH 7.5, 24 h
[8] = molecular target: T1, Bone morphogenetic protein 1 (Homo sapiens, UniProt P13497); test: Inhibition of C-terminal FLAG-6x-His epitope tagged and N-terminal human RAGE signal sequence tagged human BMP1 (121 to 721 amino acids) expressed in CHO-E1a cells pre-incubated for 10 mins before promyostatin peptide substrate addition and measured after 60 mins using 0.5 nM BMP1 by FRET based assay; assay type: cell-based
T1 sequence (P13497 whole entry): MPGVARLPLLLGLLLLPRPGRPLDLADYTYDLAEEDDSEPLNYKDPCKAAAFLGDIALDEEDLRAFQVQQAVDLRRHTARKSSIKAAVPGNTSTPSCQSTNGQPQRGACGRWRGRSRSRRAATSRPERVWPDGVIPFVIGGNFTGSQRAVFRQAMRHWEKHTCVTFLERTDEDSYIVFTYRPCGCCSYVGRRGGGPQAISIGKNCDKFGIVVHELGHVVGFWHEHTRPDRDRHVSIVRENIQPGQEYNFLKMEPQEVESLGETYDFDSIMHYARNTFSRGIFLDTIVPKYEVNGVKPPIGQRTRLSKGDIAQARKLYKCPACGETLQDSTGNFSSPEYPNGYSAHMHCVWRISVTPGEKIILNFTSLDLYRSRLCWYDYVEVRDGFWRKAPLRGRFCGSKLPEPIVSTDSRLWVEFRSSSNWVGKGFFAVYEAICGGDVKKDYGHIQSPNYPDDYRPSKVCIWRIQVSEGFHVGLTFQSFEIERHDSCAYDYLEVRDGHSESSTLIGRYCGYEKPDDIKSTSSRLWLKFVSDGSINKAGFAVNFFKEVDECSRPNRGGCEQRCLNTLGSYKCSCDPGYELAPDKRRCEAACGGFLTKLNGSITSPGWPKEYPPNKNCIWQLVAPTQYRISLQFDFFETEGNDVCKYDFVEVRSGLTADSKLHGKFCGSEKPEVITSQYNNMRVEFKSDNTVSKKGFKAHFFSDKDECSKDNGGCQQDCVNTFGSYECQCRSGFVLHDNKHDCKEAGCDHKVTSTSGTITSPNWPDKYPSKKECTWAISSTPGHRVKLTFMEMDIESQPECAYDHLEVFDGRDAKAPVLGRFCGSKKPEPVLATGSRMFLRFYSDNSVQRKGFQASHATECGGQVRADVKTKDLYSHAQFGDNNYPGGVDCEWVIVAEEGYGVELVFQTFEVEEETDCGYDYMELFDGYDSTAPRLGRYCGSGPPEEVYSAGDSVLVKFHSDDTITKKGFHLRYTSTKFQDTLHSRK

Tolloid-like protein 2 = molecular target: T2, Tolloid-like protein 2 (Homo sapiens, UniProt Q9Y6L7); test: Inhibition of C-terminal Avi-6x-His epitope tagged and N-terminal human RAGE signal sequence tagged recombinant human TLL2 (26 to 1015 amino acids) expressed in CHOE1A cells incubated for 60 mins with promyostatin peptide substrate by FRET based assay; assay type: cell-based
T2 sequence (Q9Y6L7 whole entry): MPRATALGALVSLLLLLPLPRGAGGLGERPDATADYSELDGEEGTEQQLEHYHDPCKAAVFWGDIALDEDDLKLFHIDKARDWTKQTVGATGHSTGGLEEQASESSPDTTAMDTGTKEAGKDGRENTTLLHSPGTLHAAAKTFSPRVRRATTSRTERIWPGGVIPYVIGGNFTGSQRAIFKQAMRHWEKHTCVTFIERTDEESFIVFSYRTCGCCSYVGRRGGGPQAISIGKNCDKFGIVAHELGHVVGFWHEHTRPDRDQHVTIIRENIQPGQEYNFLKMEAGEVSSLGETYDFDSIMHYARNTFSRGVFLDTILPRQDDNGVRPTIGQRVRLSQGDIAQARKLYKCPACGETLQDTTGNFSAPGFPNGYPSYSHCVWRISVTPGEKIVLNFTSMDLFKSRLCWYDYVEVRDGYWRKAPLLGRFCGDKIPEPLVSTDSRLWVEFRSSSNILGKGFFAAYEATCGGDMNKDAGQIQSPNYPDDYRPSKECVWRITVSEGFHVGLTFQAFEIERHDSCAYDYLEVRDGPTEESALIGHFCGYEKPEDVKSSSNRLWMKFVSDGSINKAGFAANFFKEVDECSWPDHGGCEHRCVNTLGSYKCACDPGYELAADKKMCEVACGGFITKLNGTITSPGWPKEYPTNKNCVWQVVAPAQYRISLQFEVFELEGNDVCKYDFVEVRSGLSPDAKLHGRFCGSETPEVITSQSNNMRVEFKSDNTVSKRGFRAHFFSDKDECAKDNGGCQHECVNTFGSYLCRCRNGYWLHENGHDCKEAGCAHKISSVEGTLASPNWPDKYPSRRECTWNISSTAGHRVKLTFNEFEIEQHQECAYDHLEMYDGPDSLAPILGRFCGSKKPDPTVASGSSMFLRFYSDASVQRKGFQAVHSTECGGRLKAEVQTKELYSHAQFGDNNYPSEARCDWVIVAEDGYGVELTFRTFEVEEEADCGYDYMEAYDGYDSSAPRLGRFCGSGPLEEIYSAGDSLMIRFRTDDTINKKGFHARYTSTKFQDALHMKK

Tolloid-like protein 1 = Tolloid-like protein 1 (Homo sapiens, UniProt O43897, I156V/N221S/V284A); test: Inhibition of recombinant human TLL1 I156V/N221S/V284A mutant expressed in CHOE1A cells pre-incubated for 10 mins before promyostatin peptide substrate addition and measured after 60 mins by FRET based assay; assay type: cell-based
[9] = Drug metabolism in heparinized pooled human plasma at pH 7.5 assessed as formation of (((3-ethoxy-5-(5-((((R)-2-((R)-1-(N-hydroxyformamido)propyl)heptanamido)methyl)carbamoyl)furan-2-yl)phenyl)(hydroxy)phosphoryl)oxy)methyl isopropyl carbonate at 100 to 2000 ng/ml incubated up to 4 or 24 hrs by LC-MS/MS analysis; assay type: ADME, cell-free; conditions: pH 7.5, 24 h

Tolloid-like protein 1, sequence (O43897 148-1013 I156V/N221S/V284A limits assumed): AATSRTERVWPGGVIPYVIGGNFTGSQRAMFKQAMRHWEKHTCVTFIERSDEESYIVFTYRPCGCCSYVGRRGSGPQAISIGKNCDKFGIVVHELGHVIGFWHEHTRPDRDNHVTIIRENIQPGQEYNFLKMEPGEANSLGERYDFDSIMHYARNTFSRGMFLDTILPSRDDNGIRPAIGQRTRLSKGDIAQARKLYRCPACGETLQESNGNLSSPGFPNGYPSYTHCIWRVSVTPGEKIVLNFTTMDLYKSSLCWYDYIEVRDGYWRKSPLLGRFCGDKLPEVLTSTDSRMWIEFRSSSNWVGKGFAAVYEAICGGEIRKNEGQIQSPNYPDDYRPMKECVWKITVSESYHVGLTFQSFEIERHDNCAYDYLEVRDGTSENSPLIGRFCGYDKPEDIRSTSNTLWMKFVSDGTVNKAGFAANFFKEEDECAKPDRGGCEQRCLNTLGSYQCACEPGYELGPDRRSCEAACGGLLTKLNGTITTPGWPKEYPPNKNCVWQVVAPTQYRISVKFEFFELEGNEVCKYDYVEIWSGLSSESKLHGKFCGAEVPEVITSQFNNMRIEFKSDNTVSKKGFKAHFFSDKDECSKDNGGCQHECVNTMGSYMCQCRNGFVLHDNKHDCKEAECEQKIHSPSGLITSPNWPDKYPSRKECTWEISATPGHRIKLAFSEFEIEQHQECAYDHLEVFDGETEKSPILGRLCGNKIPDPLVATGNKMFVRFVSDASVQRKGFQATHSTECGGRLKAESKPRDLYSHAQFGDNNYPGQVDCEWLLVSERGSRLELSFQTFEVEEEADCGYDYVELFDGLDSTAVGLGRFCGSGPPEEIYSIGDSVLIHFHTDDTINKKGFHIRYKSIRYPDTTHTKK

Row | SMILES | IC50 [1] | Drug metabolism [4] | remaining at 200 h, 1 mg/ml [5] | Drug metabolism [6] | also measured
1 | CCCCC[C@@H](C(=O)NCNC(=O)c1ccc(-c2ccc(C(=O)NCP(=O)(O)O)c(OCC)c2)o1)[C@@H](CC)N(C=O)OC(=O)c1ccc(OC)cc1 | < 3.98 µM |  |  |  | Drug metabolism [2]: Metabolite_Detected; IC50 [3]: < 1 µM
2 | CCCCC[C@@H](C(=O)NCNC(=O)c1ccc(-c2ccc(C(=O)NCP(=O)(O)O)c(OCC)c2)o1)[C@@H](CC)N(C=O)OC(=O)c1ccc(CN2CCOCC2)cc1C.O=C(O)C(F)(F)F | < 3.98 µM |  |  |  | Drug metabolism [2]: Metabolite_Detected
3 | CCCCC[C@@H](C(=O)NCNC(=O)c1ccc(-c2ccccc2)o1)[C@@H](CC)N(C=O)OCOP(=O)(O)O.N.N |  | Metabolite_Detected |  |  | 
4 | CCCCC[C@@H](C(=O)NCNC(=O)c1ccc(-c2ccccc2)o1)[C@@H](CC)N(C=O)OC(=O)C(C)(C)C | < 3.98 µM | Metabolite_Detected | < 80% | > 10% | 
5 | CCCCC[C@@H](C(=O)NCNC(=O)c1ccc(-c2ccc(C(=O)OCC(=O)N(C)C)cc2)o1)[C@@H](CC)N(O)C=O | < 3.98 µM |  |  |  | Drug metabolism [7]: Metabolite_Detected
6 | CCCCC[C@@H](C(=O)NCNC(=O)c1ccc(-c2ccccc2)o1)[C@@H](CC)N(C=O)OC(=O)c1ccccc1 | < 3.98 µM | Metabolite_Detected | < 80% | > 10% | 
7 | CCCCC[C@@H](C(=O)NCNC(=O)c1ccc(-c2ccc(C(=O)OCCc3ccccc3)cc2)o1)[C@@H](CC)N(O)C=O | < 3.98 µM |  |  |  | Drug metabolism [7]: Metabolite_Detected
8 | CCCCC[C@@H](C(=O)NCNC(=O)c1ccc(-c2ccc(C(=O)OCCN3CCOCC3)cc2)o1)[C@@H](CC)N(O)C=O | < 3.98 µM |  |  |  | Drug metabolism [7]: Metabolite_Detected
9 | CCCCC[C@@H](C(=O)NCNC(=O)c1ccc(-c2ccc(C(=O)NCP(=O)(O)O)c(OCC)c2)o1)[C@@H](CC)N(C=O)OC(=O)c1ccc(OC)cc1C | < 3.98 µM |  |  |  | Drug metabolism [2]: Metabolite_Detected
10 | CCCCC[C@@H](C(=O)NCNC(=O)c1ccc(-c2ccc(C(=O)NCP(=O)(O)O)c(OCC)c2)o1)[C@@H](CC)N(C=O)OC(=O)c1ccccc1 | < 3.98 µM |  |  |  | Drug metabolism [2]: Metabolite_Detected
11 | CCCCC[C@@H](C(=O)NCNC(=O)c1ccc(-c2ccccc2)o1)[C@@H](CC)N(C=O)OC(=O)OC | < 3.98 µM | Metabolite_Detected | < 80% | > 10% | 
12 | CCCCC[C@@H](C(=O)NCNC(=O)c1ccc(-c2ccc(C(=O)O)cc2)o1)[C@@H](CC)N(C=O)OC(=O)c1ccccc1 |  |  |  |  | Drug metabolism [7]: Metabolite_Detected
13 | CCCCC[C@@H](C(=O)NCNC(=O)c1ccc(-c2ccc(C(=O)N[C@@H](CC(=O)OC)C(=O)OC)c(OCC(=O)OC)c2)o1)[C@@H](CC)N(O)C=O | 0.398 to 3.98 µM |  | < 80% |  | IC50 [8]: 0.126 to 0.316 µM; IC50 (Tolloid-like protein 2): 0.398 to 0.794 µM; IC50 (Tolloid-like protein 1): 0.251 to 0.398 µM
14 | CCCCC[C@@H](C(=O)NCNC(=O)c1ccc(-c2ccccc2)o1)[C@@H](CC)N(C=O)OC(=O)Cc1ccccc1 | < 3.98 µM | Metabolite_Detected | < 80% | > 10% | 
15 | CCCCC[C@@H](C(=O)NCNC(=O)c1ccc(-c2ccccc2)o1)[C@@H](CC)N(C=O)OC(=O)OC(C)(C)C | < 3.98 µM | Metabolite_Detected | < 80% | > 10% | IC50 [3]: < 1 µM
16 | CCCCC[C@@H](C(=O)NCNC(=O)c1ccc(-c2cc(OCC)cc(P(=O)(OCOC(=O)OC(C)C)OCOC(=O)OC(C)C)c2)o1)[C@@H](CC)N(O)C=O |  |  |  |  | Drug metabolism [9]: Metabolite_Detected
